Measured values taken from patent US8247211B2, “Glycopeptide antibiotics” (American Cyanamid Company, priority 2001, dated 2012).
Values after ≈ are worked out from the molar mass of the structure shown.

Columns and labels:
Assay in all cases: In vitro antibacterial evaluation: minimum inhibitory concentration (MIC), broth dilution method
Type in all cases: cell-based
Streptococcus sp. = conditions: broth dilution, 5×10^5 CFU/mL, 18 hours at 35° C.
Procedure: (§1) The minimum inhibitory concentration (MIC), the lowest concentration of the antibiotic which inhibits growth of the test organism, is determined by the broth dilution method using Muller-Hinton II […] (Baltimore Biological Laboratories) following the recommendations of the National Committee for Clinical Laboratory Standards [Methods for dilution antimicrobial susceptibility tests for bacteria that grow aerobically, approved standard M7-A2, National Committee for Clinical Laboratory Standards, Villanova, Pa].
(§2) An inoculum level of 5×10^5 CFU/mL, and a range of antibiotic concentrations (64-0.06 μg/mL) is used. […] The test organisms include a spectrum of Gram-positive bacteria comprised of Staphylococcus sp., Streptococcus sp. and Enterococcus sp. These organisms include recent clinical isolates that are resistant to methicillin, penicillin and/or vancomycin.

Enterococcus sp. = conditions: broth dilution, 5×10^5 CFU/mL, 18 hours at 35° C.
Procedure: as §1, §2

Escherichia coli = conditions: 5×10^5 CFU/mL, 18 hours at 35° C.
Procedure: as §1, §2

Staphylococcus sp. = conditions: for MIC Staphylococcus aureus (ATCC 29213): strain ATCC 29213; for MIC Staphylococcus aureus (GC 1131): strain GC 1131; for MIC Staphylococcus aureus (GC 4541): strain GC 4541; for MIC Staphylococcus aureus (GC 4542): strain GC 4542; for MIC Staphylococcus aureus-SMITH (GC 4543): strain GC 4543; for MIC Staphylococcus aureus (GC 4544): strain GC 4544; for MIC Staphylococcus aureus (GC 4545): strain GC 4545; for MIC Staphylococcus haemolyticus (GC 4546): strain GC 4546; for MIC Coagulase Negative Staphylococcus (GC 4547): strain GC 4547; for MIC Coagulase Negative Staphylococcus (GC 4548): strain GC 4548; for MIC Coagulase Negative Staphylococcus (GC 4549): strain GC 4549; for MIC Coagulase Negative Staphylococcus (GC 4551): strain GC 4551; for MIC Coagulase Negative Staphylococcus (ID-3941): strain ID-3941
Procedure: as §1, §2

[1] = broth dilution, 18 hours at 35° C.

| Structure (SMILES) | MIC Streptococcus agalactiae (GC 4564) (Streptococcus sp.) | MIC Streptococcus pneumoniae (GC 4565) (Streptococcus sp.) | MIC Streptococcus pyogenes (ID-3187) (Streptococcus sp.) | MIC Enterococccus avium (GC 4558) (Enterococcus sp.) | MIC Enterococccus faecalis (ATCC 29212) (Enterococcus sp.) | MIC Enterococccus faecalis (GC 4552) (Enterococcus sp.) | MIC Enterococccus faecalis (GC 4553) (Enterococcus sp.) | MIC Enterococccus faecalis (GC 4554) (Enterococcus sp.) | MIC Enterococccus faecium (GC 2243) (Enterococcus sp.) | MIC Enterococccus faecium (GC 4556) (Enterococcus sp.) | MIC Enterococccus faecium (GC 4557) (Enterococcus sp.) | MIC Enterococcus faecalis (GC 2242) (Enterococcus sp.) | MIC Escherichia coli (ATCC 25922) (Escherichia coli) | MIC Staphylococcus aureus (ATCC 29213) (Staphylococcus sp.) | MIC Staphylococcus aureus (ATCC 29213) (Staphylococcus sp.; [1]) | MIC Staphylococcus aureus (GC 1131) (Staphylococcus sp.) | MIC Staphylococcus aureus (GC 1131) (Staphylococcus sp.; [1]) | MIC Staphylococcus aureus (GC 4541) (Staphylococcus sp.) | MIC Staphylococcus aureus (GC 4541) (Staphylococcus sp.; [1]) | MIC Staphylococcus aureus (GC 4542) (Staphylococcus sp.) | other results |
| --- | --- | --- | --- | --- | --- | --- | --- | --- | --- | --- | --- | --- | --- | --- | --- | --- | --- | --- | --- | --- | --- |
| CCCCCC1OCC2OC(OC3C(CO)OC(Oc4ccc(CC5NC(=O)C(C(C)c6ccccc6)NC(=O)CNC(=O)C(CO)NC(=O)C(C(O)C6CNC(=N)N6C6OC(CO)C(O)C(O)C6O)NC(=O)C(C(O)C6CNC(=N)N6)NC5=O)cc4)C(O)C3O)C(O)C(O)C2O1 (stereo not drawn) [Example 108, Cyclo[glycyl-β-methylphenylalanyl-O-[4-O-(4,6-O-hexylidenehexonyranosyl)hexopyranosyl]-tyrosyl-3-(2-iminoimidazolidin-4-yl)seryl-3-(3-hexopyranosyl-2-iminoimidazolidin-4-yl)-serylseryl]] | <0.5 µg/mL | <0.5 µg/mL | <0.5 µg/mL | 2 µg/mL (≈ 1.45 µM) | 2 µg/mL (≈ 1.45 µM) | 2 µg/mL (≈ 1.45 µM) | 2 µg/mL (≈ 1.45 µM) | 2 µg/mL (≈ 1.45 µM) | 2 µg/mL (≈ 1.45 µM) | 2 µg/mL (≈ 1.45 µM) | 1 µg/mL (≈ 0.726 µM) | 2 µg/mL (≈ 1.45 µM) | 32 µg/mL (≈ 23.2 µM) | 1 µg/mL (≈ 0.726 µM) | 1 µg/mL (≈ 0.726 µM) | 1 µg/mL (≈ 0.726 µM) | 1 µg/mL (≈ 0.726 µM) | 1 µg/mL (≈ 0.726 µM) | 1 µg/mL (≈ 0.726 µM) | 1 µg/mL (≈ 0.726 µM) | MIC Staphylococcus aureus (GC 4542) (Staphylococcus sp.; [1]): 1 µg/mL (≈ 0.726 µM); MIC Staphylococcus aureus-SMITH (GC 4543) (Staphylococcus sp.; 18 hours at 35° C.): 1 µg/mL (≈ 0.726 µM); MIC Staphylococcus aureus-SMITH (GC 4543) (Staphylococcus sp.; [1]): 1 µg/mL (≈ 0.726 µM); MIC Staphylococcus aureus (GC 4544) (Staphylococcus sp.): 1 µg/mL (≈ 0.726 µM); MIC Staphylococcus aureus (GC 4544) (Staphylococcus sp.; [1]): 1 µg/mL (≈ 0.726 µM); MIC Staphylococcus aureus (GC 4545) (Staphylococcus sp.): 1 µg/mL (≈ 0.726 µM); MIC Staphylococcus aureus (GC 4545) (Staphylococcus sp.; [1]): 1 µg/mL (≈ 0.726 µM); MIC Staphylococcus haemolyticus (GC 4546) (Staphylococcus sp.): 1 µg/mL (≈ 0.726 µM); MIC Staphylococcus haemolyticus (GC 4546) (Staphylococcus sp.; [1]): 1 µg/mL (≈ 0.726 µM); MIC Coagulase Negative Staphylococcus (GC 4547) (Staphylococcus sp.): 1 µg/mL (≈ 0.726 µM); MIC Coagulase Negative Staphylococcus (GC 4547) (Staphylococcus sp.; [1]): 1 µg/mL (≈ 0.726 µM); MIC Coagulase Negative Staphylococcus (GC 4548) (Staphylococcus sp.): <0.5 µg/mL; MIC Coagulase Negative Staphylococcus (GC 4548) (Staphylococcus sp.; [1]): <0.5 µg/mL; MIC Coagulase Negative Staphylococcus (GC 4549) (Staphylococcus sp.): 1 µg/mL (≈ 0.726 µM); MIC Coagulase Negative Staphylococcus (GC 4549) (Staphylococcus sp.; [1]): 1 µg/mL (≈ 0.726 µM); MIC Coagulase Negative Staphylococcus (GC 4551) (Staphylococcus sp.): 1 µg/mL (≈ 0.726 µM); MIC Coagulase Negative Staphylococcus (GC 4551) (Staphylococcus sp.; [1]): 1 µg/mL (≈ 0.726 µM); MIC Coagulase Negative Staphylococcus (ID-3941) (Staphylococcus sp.): 1 µg/mL (≈ 0.726 µM); MIC Coagulase Negative Staphylococcus (ID-3941) (Staphylococcus sp.; [1]): 1 µg/mL (≈ 0.726 µM) |
| CCCCCCCC1OCC2OC(OC3C(CO)OC(Oc4ccc(CC5NC(=O)C(C(C)c6ccccc6)NC(=O)CNC(=O)C(CO)NC(=O)C(C(O)C6CNC(=N)N6C6OC(CO)C(O)C(O)C6O)NC(=O)C(C(O)C6CNC(=N)N6)NC5=O)cc4)C(O)C3O)C(O)C(O)C2O1 (stereo not drawn) [Example 109, Cyclo[glycyl-β-methylphenylalanyl-O-[4-O-(4,6-O-octylidenehexopyranosyl)hexopyranosyl]-tyrosyl-3-(2-iminoimidazoliclin-4-yl)seryl-3-(3-hexopyranosyl-2-iminoimidazolidin-4-yl)-serylseryl]] | <0.5 µg/mL | <0.5 µg/mL | <0.5 µg/mL | 2 µg/mL (≈ 1.42 µM) | 2 µg/mL (≈ 1.42 µM) | 2 µg/mL (≈ 1.42 µM) | 2 µg/mL (≈ 1.42 µM) | 2 µg/mL (≈ 1.42 µM) | 1 µg/mL (≈ 0.712 µM) | 2 µg/mL (≈ 1.42 µM) | 1 µg/mL (≈ 0.712 µM) | 2 µg/mL (≈ 1.42 µM) | 16 µg/mL (≈ 11.4 µM) | 1 µg/mL (≈ 0.712 µM) | 1 µg/mL (≈ 0.712 µM) | 1 µg/mL (≈ 0.712 µM) | 1 µg/mL (≈ 0.712 µM) | 1 µg/mL (≈ 0.712 µM) | 1 µg/mL (≈ 0.712 µM) | 1 µg/mL (≈ 0.712 µM) | MIC Staphylococcus aureus (GC 4542) (Staphylococcus sp.; [1]): 1 µg/mL (≈ 0.712 µM); MIC Staphylococcus aureus-SMITH (GC 4543) (Staphylococcus sp.; 18 hours at 35° C.): 1 µg/mL (≈ 0.712 µM); MIC Staphylococcus aureus-SMITH (GC 4543) (Staphylococcus sp.; [1]): 1 µg/mL (≈ 0.712 µM); MIC Staphylococcus aureus (GC 4544) (Staphylococcus sp.): 1 µg/mL (≈ 0.712 µM); MIC Staphylococcus aureus (GC 4544) (Staphylococcus sp.; [1]): 1 µg/mL (≈ 0.712 µM); MIC Staphylococcus aureus (GC 4545) (Staphylococcus sp.): 1 µg/mL (≈ 0.712 µM); MIC Staphylococcus aureus (GC 4545) (Staphylococcus sp.; [1]): 1 µg/mL (≈ 0.712 µM); MIC Staphylococcus haemolyticus (GC 4546) (Staphylococcus sp.): 1 µg/mL (≈ 0.712 µM); MIC Staphylococcus haemolyticus (GC 4546) (Staphylococcus sp.; [1]): 1 µg/mL (≈ 0.712 µM); MIC Coagulase Negative Staphylococcus (GC 4547) (Staphylococcus sp.): 1 µg/mL (≈ 0.712 µM); MIC Coagulase Negative Staphylococcus (GC 4547) (Staphylococcus sp.; [1]): 1 µg/mL (≈ 0.712 µM); MIC Coagulase Negative Staphylococcus (GC 4548) (Staphylococcus sp.): <0.5 µg/mL; MIC Coagulase Negative Staphylococcus (GC 4548) (Staphylococcus sp.; [1]): <0.5 µg/mL; MIC Coagulase Negative Staphylococcus (GC 4549) (Staphylococcus sp.): 1 µg/mL (≈ 0.712 µM); MIC Coagulase Negative Staphylococcus (GC 4549) (Staphylococcus sp.; [1]): 1 µg/mL (≈ 0.712 µM); MIC Coagulase Negative Staphylococcus (GC 4551) (Staphylococcus sp.): 1 µg/mL (≈ 0.712 µM); MIC Coagulase Negative Staphylococcus (GC 4551) (Staphylococcus sp.; [1]): 1 µg/mL (≈ 0.712 µM); MIC Coagulase Negative Staphylococcus (ID-3941) (Staphylococcus sp.): 1 µg/mL (≈ 0.712 µM); MIC Coagulase Negative Staphylococcus (ID-3941) (Staphylococcus sp.; [1]): 1 µg/mL (≈ 0.712 µM) |
| CC(c1ccccc1)C1NC(=O)CNC(=O)C(CO)NC(=O)C(C(O)C2CNC(=N)N2C2OC(CO)C(O)C(O)C2O)NC(=O)C(C(O)C2CNC(=N)N2)NC(=O)C(Cc2ccc(OC3OC(CO)C(OC4OC5COC(CC(C)(C)C)OC5C(O)C4O)C(O)C3O)cc2)NC1=O (stereo not drawn) [Example 110] | <0.5 µg/mL | <0.5 µg/mL | <0.5 µg/mL | 4 µg/mL (≈ 2.9 µM) | 4 µg/mL (≈ 2.9 µM) | 4 µg/mL (≈ 2.9 µM) | 4 µg/mL (≈ 2.9 µM) | 2 µg/mL (≈ 1.45 µM) | 4 µg/mL (≈ 2.9 µM) | 2 µg/mL (≈ 1.45 µM) | 2 µg/mL (≈ 1.45 µM) | 2 µg/mL (≈ 1.45 µM) | 64 µg/mL (≈ 46.5 µM) | 1 µg/mL (≈ 0.726 µM) | 1 µg/mL (≈ 0.726 µM) | 1 µg/mL (≈ 0.726 µM) | 1 µg/mL (≈ 0.726 µM) | 1 µg/mL (≈ 0.726 µM) | 1 µg/mL (≈ 0.726 µM) | 1 µg/mL (≈ 0.726 µM) | MIC Staphylococcus aureus (GC 4542) (Staphylococcus sp.; [1]): 1 µg/mL (≈ 0.726 µM); MIC Staphylococcus aureus-SMITH (GC 4543) (Staphylococcus sp.; 18 hours at 35° C.): 1 µg/mL (≈ 0.726 µM); MIC Staphylococcus aureus-SMITH (GC 4543) (Staphylococcus sp.; [1]): 1 µg/mL (≈ 0.726 µM); MIC Staphylococcus aureus (GC 4544) (Staphylococcus sp.): 2 µg/mL (≈ 1.45 µM); MIC Staphylococcus aureus (GC 4544) (Staphylococcus sp.; [1]): 2 µg/mL (≈ 1.45 µM); MIC Staphylococcus aureus (GC 4545) (Staphylococcus sp.): 1 µg/mL (≈ 0.726 µM); MIC Staphylococcus aureus (GC 4545) (Staphylococcus sp.; [1]): 1 µg/mL (≈ 0.726 µM); MIC Staphylococcus haemolyticus (GC 4546) (Staphylococcus sp.): 1 µg/mL (≈ 0.726 µM); MIC Staphylococcus haemolyticus (GC 4546) (Staphylococcus sp.; [1]): 1 µg/mL (≈ 0.726 µM); MIC Coagulase Negative Staphylococcus (GC 4547) (Staphylococcus sp.): 1 µg/mL (≈ 0.726 µM); MIC Coagulase Negative Staphylococcus (GC 4547) (Staphylococcus sp.; [1]): 1 µg/mL (≈ 0.726 µM); MIC Coagulase Negative Staphylococcus (GC 4548) (Staphylococcus sp.): 1 µg/mL (≈ 0.726 µM); MIC Coagulase Negative Staphylococcus (GC 4548) (Staphylococcus sp.; [1]): 1 µg/mL (≈ 0.726 µM); MIC Coagulase Negative Staphylococcus (GC 4549) (Staphylococcus sp.): 1 µg/mL (≈ 0.726 µM); MIC Coagulase Negative Staphylococcus (GC 4549) (Staphylococcus sp.; [1]): 1 µg/mL (≈ 0.726 µM); MIC Coagulase Negative Staphylococcus (GC 4551) (Staphylococcus sp.): 1 µg/mL (≈ 0.726 µM); MIC Coagulase Negative Staphylococcus (GC 4551) (Staphylococcus sp.; [1]): 1 µg/mL (≈ 0.726 µM); MIC Coagulase Negative Staphylococcus (ID-3941) (Staphylococcus sp.): 1 µg/mL (≈ 0.726 µM); MIC Coagulase Negative Staphylococcus (ID-3941) (Staphylococcus sp.; [1]): 1 µg/mL (≈ 0.726 µM) |
